{"source": "patent US20080119445A1", "about": "“METHODS OF FEMALE SEXUAL ENHANCEMENT” (priority 2004, published 2008)", "key": {"[1]": {"tested_on": "women", "assay": "unpublished clinical study of DHEA cream (transdermal) or pellets (subcutaneous) in women", "format": "in vivo, human", "text": "A third embodiment of the present invention comprises a new use of a well-established steroid hormone. The invention includes both the topical application of the hormone in cream form and the subcutaneous implantation of the hormone in pellet form for the purpose of female sexual enhancement.\nThe hormone is dehydroepiandrosterone (DHEA) and the carrying agent for its topical use is a proprietary compound, Q-base cream. Q-base cream is available to compound pharmacies all over the United States and consists of the following formulation: • purified water, cyclomethicone, octyl stearate, arlacel 165 (PEG-100 stearate/glyceryl stearate), sorbitol, green tea extract (organic), stearyl alcohol, cyclopentasiloxane and PEG/PPG-18/18 dimethicone, gingko extract (organic), ginseng extract (organic), tocotrienols, vitamin E acetate, wheat germ oil, edetate disodium, xanthan gum, vitamin A palmitate, coenzyme Q10, methylchloroisothiazolinone/methylisothiazolin one.\nAlternatively, the carrying agent for the DHEA may comprise H-base cream. The formula for H-base cream is as follows: • water, glycerin, canola oil, stearic acid, cetyl alcohol, PEG-100 stearate, glyceryl stearate, dimethicone, magnesium aluminum silicate, propylene glycol, triethanolamine, polysorbate 60, xanthan gum, bitter almond kernel oil, aloe vera, grape seed extract, wheat germ oil, vitamin E acetate, vitamin A palmitate, Vitamin C palmitate, tetrasodium EDTA, potassium sorbate, diazolidinyl urea. H base cream is a proprietary product produced by Professional Compounds Centers of America and licensed by it.\nThe method of application of either the Q-base cream/DHEA mixture or the H-base cream/DHEA mixture in females is local application to the erectile tissue of the nipples and glans clitoris. The ratio of ingredients comprising the Q-base cream/DHEA mixture is between about 25 mg and about 50 mg of DHEA to about 1 cc of Q-base cream. The ratio of ingredients comprising the H-base cream/DHEA mixture is substantially the same. The resulting mixture is applied one time per day but not related to intercourse. Implantation of subcutaneous DHEA pellets is at the strength of about 25 mg of DHEA per pellet at intervals of between about 2 months and about 3 months. […] Normal levels are considered to be 50-100 picograms per milliliter.\nIn an unpublished clinical study of the third embodiment of the invention over the past three years patient acceptance and satisfaction has been clear-cut and in excess of 95%. The response is dependent on the patient having normal blood levels of estradiol and testosterone as well. A normal level of DHEA is about 50 to about 100 picograms per milliliter. A normal level of estradiol is about 50 to about 100 picograms per milliliter and a normal level of testosterone is about 200 to about 540 picograms per milliliter. Normal ranges for all these levels can vary from laboratory to laboratory."}, "[2]": {"tested_on": "women", "conditions": "headaches, facial flushing, nasal congestion, indigestion, bluish tinge to vision, blindness; cited from earlier work"}, "[3]": {"tested_on": "women", "conditions": "widely used for years; cited from earlier work"}, "[4]": {"tested_on": "women", "conditions": "normal estradiol and testosterone levels not established before the drug was used; cited from earlier work"}, "[5]": {"tested_on": "women", "assay": "administration of vardenafil hydrochloride or tadalafil to women prior to sexual activity", "format": "in vivo, human", "method": "More particularly, the initial step in the process comprising the first embodiment of the invention comprises identifying a woman desiring sexual enhancement. […] Thereafter, the woman's blood is tested to determine the levels of estradiol and testosterone. If the woman's blood contains an estradiol level within a first predetermined range and a testosterone level within a second predetermined range, the process of the present invention continues. If not, the woman is treated utilizing conventional techniques to bring the level of estradiol in her blood to within the first predetermined range and/or to bring the level of testosterone in her blood to within the second predetermined range. […]\nAfter the required levels of estradiol and testosterone in the woman's blood have either been confirmed or established, a drug selected from the group consisting of vardenafil hydrochloride and tadalafil is administered to the woman prior to sexual activity. […] It has been determined that the selected drug should be administered at least 15-20 minutes prior to the beginning of sexual activity. The optimum time interval between administration of the selected drug and the beginning of sexual activity may vary depending on the particular circumstances and is best determined by the woman through experimentation. […]"}}, "note": "Structures can show the parent of a compound that is named as a salt.", "data": [{"compound": "C[C@]12CC[C@H](O)CC1=CC[C@@H]1[C@@H]2CC[C@]2(C)C(=O)CC[C@@H]12", "note": "[DHEA, dehydroepiandrosterone]", "values": [{"measurement": "blood levels, cream versus subcutaneous pellets", "setting": "[1]; cream once per day versus about 25 mg pellet every 2 to 3 months", "result": "Identical blood levels are achieved with both methods of application"}, {"measurement": "patient acceptance and satisfaction", "setting": "[1]; third embodiment, over the past three years, normal blood levels of estradiol and testosterone", "result": "> 95", "unit": "%"}, {"measurement": "female sexual pleasure and satisfaction including sexual arousal and achievement of orgasm", "setting": "[1]; transdermal or subcutaneous, women with normal estradiol and testosterone", "result": "enhanced"}, {"measurement": "blood level above which excess androgen complications occur (male pattern hair loss, excess facial hair growth, acne)", "setting": "[1]; women", "result": "exceed 100 picograms per milliliter"}, {"measurement": "safety profile of administration", "setting": "[1]; women", "result": "extraordinary"}]}, {"compound": "CCCc1nn(C)c2c(=O)[nH]c(-c3cc(S(=O)(=O)N4CCN(C)CC4)ccc3OCC)nc12", "note": "[VIAGRA, sildenafil citrate]", "values": [{"measurement": "side effects observed in women using the drug for sexual enhancement", "setting": "[2]", "result": "unacceptable side effects"}]}, {"compound": "CN1CC(=O)N2[C@H](c3ccc4c(c3)OCO4)c3[nH]c4ccccc4c3C[C@@H]2C1=O", "note": "[tadalafil]", "values": [{"measurement": "safety profile", "setting": "[3]", "result": "remarkable safety profiles"}]}, {"compound": "CCCc1nc(C)c2c(=O)[nH]c(-c3cc(S(=O)(=O)N4CCN(CC)CC4)ccc3OCC)nn12", "note": "[vardenafil hydrochloride]", "values": [{"measurement": "safety profile", "setting": "[3]", "result": "remarkable safety profiles"}, {"measurement": "efficacy in women", "setting": "[4]", "result": "ineffective in women"}, {"measurement": "enhancement of sexual arousal and sexual satisfaction in females", "setting": "[5]; drug given prior to sexual activity", "result": "significant enhancement"}, {"measurement": "efficacy in women compared with men", "setting": "[5]; experiences over the past 2 years, lower dosage, used correctly (normal estradiol and testosterone)", "result": "even more effective (lower dosage) in women than in men"}]}]}
